Laboratory results taken from US20250041429A1, “COMPOUND HAVING BTK PROTEIN DEGRADATION ACTIVITY, AND MEDICAL USES THEREOF” (UBIX THERAPEUTICS, INC., priority 2021, published 2025).

Molecular target: T1, BTK protein (Homo sapiens, UniProt Q06187)
T1 construct: endogenous in cells; host or cells: TMD-8 cells
Test: Measurement of BTK protein degradation ability in TMD-8 cells (Western blotting)
Type: cell-based
Settings: harvested after 24 hours; for BTK degradation (%) 1 nM: compound 1 nM; for BTK degradation (%) 10 nM: compound 10 nM; for BTK degradation (%) 100 nM: compound 100 nM
Summary of the method: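 BTK levels were measured by immunoblotting of equal-protein RIPA lysates, normalized to GAPDH or β-actin, with chemiluminescent or infrared detection. Lysates came from TMD-8 cells exposed to compound for 24 h at final concentrations of 0.1, 1, 10 μM or 0.0001–0.1 μM, against a DMSO control.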

T1 sequence (Q06187 whole entry): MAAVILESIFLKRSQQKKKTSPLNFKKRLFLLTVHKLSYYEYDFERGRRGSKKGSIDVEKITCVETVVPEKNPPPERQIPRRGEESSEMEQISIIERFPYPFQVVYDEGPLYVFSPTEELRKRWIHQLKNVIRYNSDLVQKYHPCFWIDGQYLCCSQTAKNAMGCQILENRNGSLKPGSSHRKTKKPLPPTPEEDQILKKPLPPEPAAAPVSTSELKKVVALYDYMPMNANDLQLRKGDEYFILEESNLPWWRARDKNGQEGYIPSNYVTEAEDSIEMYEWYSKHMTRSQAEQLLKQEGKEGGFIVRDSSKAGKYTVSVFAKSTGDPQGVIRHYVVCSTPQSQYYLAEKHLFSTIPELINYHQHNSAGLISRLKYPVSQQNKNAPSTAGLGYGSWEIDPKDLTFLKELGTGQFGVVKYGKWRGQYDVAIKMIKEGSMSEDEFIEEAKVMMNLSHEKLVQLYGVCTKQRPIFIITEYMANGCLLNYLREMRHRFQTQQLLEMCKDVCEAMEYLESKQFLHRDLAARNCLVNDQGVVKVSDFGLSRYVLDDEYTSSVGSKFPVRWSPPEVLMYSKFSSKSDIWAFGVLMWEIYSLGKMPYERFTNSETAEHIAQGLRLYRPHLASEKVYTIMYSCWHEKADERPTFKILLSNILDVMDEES

Row | SMILES | BTK degradation (%) 1 nM [%] | BTK degradation (%) 10 nM [%] | BTK degradation (%) 100 nM [%]
1 | Cc1cc(-c2ccnc(Nc3ccc(N4CCN(C5CCN(C(=O)c6cccc(NC7CCC(=O)NC7=O)c6)CC5)CC4)cc3)n2)ccc1CNC(=O)N1CC(OC(C)C)C1 (stereo not drawn) [Example 103, N-(4-(2-((4-(4-(1-(3-((2,6-dioxopiperidin-3-yl)amino)benzoyl)piperidin-4-yl)piperazin-1-yl)phenyl)amino)pyrimidin-4-yl)-2-methylbenzyl)-3-isopropoxyazetidine-1-carboxamide] | −12.5 | 69.0 | 97.0
2 | Cc1cc(-c2ccnc(Nc3ccc(C4CCN(C5CCN(C(=O)c6cccc(NC7CCC(=O)NC7=O)c6)CC5)CC4)cc3)n2)ccc1CNC(=O)N1CC(OC(C)C)C1 (stereo not drawn) [Example 104, N-(4-(2-((4-(1′-(3-((2,6-dioxopiperidin-3-yl)amino)benzoyl)-[1,4′-bipiperidin]-4-yl)phenyl)amino)pyrimidin-4-yl)-2-methylbenzyl)-3-isopropoxyazetidine-1-carboxamide] | −9.0 | 39.0 | 95.5
3 | Cc1cc(-c2ccnc(Nc3ccc(N4CCN(CC5CCN(CC(=O)Nc6cccc(NC7CCC(=O)NC7=O)c6)CC5)CC4)cc3)n2)ccc1CNC(=O)N1CC(OC(C)C)C1 (stereo not drawn) [Example 105, N-(4-(2-((4-(4-((1-(2-((3-((2,6-dioxopiperidin-3-yl)amino)phenyl)amino)-2-oxoethyl)piperidin-4-yl)methyl)piperazin-1-yl)phenyl)amino)pyrimidin-4-yl)-2-methylbenzyl)-3-isopropoxyazetidine-1-carboxamide] | 35 | 91.5 | 98
4 | Cc1c(NC(=O)N2CC(OC(C)C)C2)cc(F)cc1-c1ccnc(Nc2ccc(N3CCN(CC4CCN(CC(=O)Nc5cccc(NC6CCC(=O)NC6=O)c5)CC4)CC3)cc2)n1 (stereo not drawn) [Example 106, N-(3-(2-((4-(4-((1-(2-((3-((2,6-dioxopiperidin-3-yl)amino)phenyl)amino)-2-oxoethyl)piperidin-4-yl)methyl)piperazin-1-yl)phenyl)amino)pyrimidin-4-yl)-5-fluoro-2-methylphenyl)-3-isopropoxyazetidine-1-carboxamide] | 1 | 20 | 76
5 | Cc1cc(-c2ccnc(Nc3ccc(N4CCN(CC5CN(c6ccc7c(n6)CN(C6CCC(=O)NC6=O)C7=O)C5)CC4)cc3)n2)ccc1CNC(=O)N1CC(OC(C)C)C1 (stereo not drawn) [Example 107, N-(4-(2-((4-(4-((1-(6-(2,6-dioxopiperidin-3-yl)-5-oxo-6,7-dihydro-5H-pyrrolo[3,4-b]pyridin-2-yl)azetidin-3-yl)methyl)piperazin-1-yl)phenyl)amino)pyrimidin-4-yl)-2-methylbenzyl)-3-isopropoxyazetidine-1-carboxamide] | 63.5 | 95 | 98
6 | Cc1c(NC(=O)N2CC(OC(C)C)C2)cc(F)cc1-c1ccnc(Nc2ccc(N3CCN(CC4CN(c5ccc6c(n5)CN(C5CCC(=O)NC5=O)C6=O)C4)CC3)cc2)n1 (stereo not drawn) [Example 108, N-(3-(2-((4-(4-((1-(6-(2,6-dioxopiperidin-3-yl)-5-oxo-6,7-dihydro-5H-pyrrolo[3,4-b]pyridin-2-yl)azetidin-3-yl)methyl)piperazin-1-yl)phenyl)amino)pyrimidin-4-yl)-5-fluoro-2-methylphenyl)-3-isopropoxyazetidine-1-carboxamide] | 21.5 | 73 | 94.5
7 | Cc1cc(-c2ccnc(Nc3ccc(N4CCN(C5CCN(c6ccc7c(c6)C(=O)N(C6CCC(=O)NC6=O)C7=O)CC5)CC4)cc3)n2)ccc1CNC(=O)N1CC(OC(C)C)C1 (stereo not drawn) [Example 109, N-(4-(2-((4-(4-(1-(2-(2,6-dioxopiperidin-3-yl)-1,3-dioxoisoindolin-5-yl)piperidin-4-yl)piperazin-1-yl)phenyl)amino)pyrimidin-4-yl)-2-methylbenzyl)-3-isopropoxyazetidine-1-carboxamide] | 41.5 | 94.0 | 99.5
8 | Cc1cc(-c2ccnc(Nc3ccc(C4CCN(C5CCN(c6ccc7c(c6)C(=O)N(C6CCC(=O)NC6=O)C7=O)CC5)CC4)cc3)n2)ccc1CNC(=O)N1CC(OC(C)C)C1 (stereo not drawn) [Example 110, N-(4-(2-((4-(1′-(2-(2,6-dioxopiperidin-3-yl)-1,3-dioxoisoindolin-5-yl)-[1,4′-bipiperidin]-4-yl)phenyl)amino)pyrimidin-4-yl)-2-methylbenzyl)-3-isopropoxyazetidine-1-carboxamide] | 28.0 | 92.0 | 99.5
9 | Cc1cc(-c2ccnc(Nc3ccc(N4CCC(CN5CCN(c6ccc7c(c6)C(=O)N(C6CCC(=O)NC6=O)C7=O)CC5)CC4)cc3)n2)ccc1CNC(=O)N1CC(OC(C)C)C1 (stereo not drawn) [Example 111, N-(4-(2-((4-(4-((4-(2-(2,6-dioxopiperidin-3-yl)-1,3-dioxoisoindolin-5-yl)piperazin-1-yl)methyl)piperidin-1-yl)phenyl)amino)pyrimidin-4-yl)-2-methylbenzyl)-3-isopropoxyazetidine-1-carboxamide] | 44 | 93.5 | 99.5
10 | Cc1cc(-c2ccnc(Nc3ccc(N4CC(CN5CCN(c6ccc7c(c6)C(=O)N(C6CCC(=O)NC6=O)C7=O)CC5)C4)cc3)n2)ccc1CNC(=O)N1CC(OC(C)C)C1 (stereo not drawn) [Example 112, N-(4-(2-((4-(3-((4-(2-(2,6-dioxopiperidin-3-yl)-1,3-dioxoisoindolin-5-yl)piperazin-1-yl)methyl)azetidin-1-yl)phenyl)amino)pyrimidin-4-yl)-2-methylbenzyl)-3-isopropoxyazetidine-1-carboxamide] | 44.0 | 97.0 | 100.0
11 | Cc1cc(-c2ccnc(Nc3ccc(N4CC(CN5CCN(C(=O)c6cccc(NC7CCC(=O)NC7=O)c6)CC5)C4)cc3)n2)ccc1CNC(=O)N1CC(OC(C)C)C1 (stereo not drawn) [Example 113, N-(4-(2-((4-(3-((4-(3-((2,6-dioxopiperidin-3-yl)amino)benzoyl)piperazin-1-yl)methyl)azetidin-1-yl)phenyl)amino)pyrimidin-4-yl)-2-methylbenzyl)-3-isopropoxyazetidine-1-carboxamide] | 39.5 | 97.0 | 100.0
12 | Cc1cc(-c2ccnc(Nc3ccc(N4CCC(CN5CCN(C(=O)c6cccc(NC7CCC(=O)NC7=O)c6)CC5)CC4)cc3)n2)ccc1CNC(=O)N1CC(OC(C)C)C1 (stereo not drawn) [Example 114, N-(4-(2-((4-(4-((4-(3-((2,6-dioxopiperidin-3-yl)amino)benzoyl)piperazin-1-yl)methyl)piperidin-1-yl)phenyl)amino)pyrimidin-4-yl)-2-methylbenzyl)-3-isopropoxyazetidine-1-carboxamide] | 59.0 | 99.5 | 99.5
13 | Cc1cc(-c2ccnc(Nc3ccc(N4CCN(CC5CCN(Cc6cccc(NC7CCC(=O)NC7=O)c6)CC5)CC4)cc3)n2)ccc1CNC(=O)N1CC(OC(C)C)C1 (stereo not drawn) [Example 115, N-(4-(2-((4-(4-((1-(3-((2,6-dioxopiperidin-3-yl)amino)benzyl)piperidin-4-yl)methyl)piperazin-1-yl)phenyl)amino)pyrimidin-4-yl)-2-methylbenzyl)-3-isopropoxyazetidine-1-carboxamide] | 48.0 | 97.0 | 100.0
14 | Cc1cc(-c2ccnc(Nc3ccc(N4CCC(C(=O)N5CCC(c6cccc(NC7CCC(=O)NC7=O)c6)CC5)CC4)cc3)n2)ccc1CNC(=O)N1CC(OC(C)C)C1 (stereo not drawn) [Example 116, N-(4-(2-((4-(4-(4-(3-((2,6-dioxopiperidin-3-yl)amino)phenyl)piperidine-1-carbonyl)piperidin-1-yl)phenyl)amino)pyrimidin-4-yl)-2-methylbenzyl)-3-isopropoxyazetidine-1-carboxamide] | 1.0 | 56.0 | 96.5
15 | Cc1cc(-c2ccnc(Nc3ccc(N4CCC(C(=O)N5CCC(c6ccc(NC7CCC(=O)NC7=O)cc6)CC5)CC4)cc3)n2)ccc1CNC(=O)N1CC(OC(C)C)C1 (stereo not drawn) [Example 117, N-(4-(2-((4-(4-(4-(4-((2,6-dioxopiperidin-3-yl)amino)phenyl)piperidine-1-carbonyl)piperidin-1-yl)phenyl)amino)pyrimidin-4-yl)-2-methylbenzyl)-3-isopropoxyazetidine-1-carboxamide] | 24.0 | 87.5 | 99.0
16 | Cc1cc(-c2ccnc(Nc3ccc(N4CCC(C(=O)N5CCC(c6ccc(OC7CCC(=O)NC7=O)cc6)CC5)CC4)cc3)n2)ccc1CNC(=O)N1CC(OC(C)C)C1 (stereo not drawn) [Example 118, N-(4-(2-((4-(4-(4-(4-((2,6-dioxopiperidin-3-yl)oxy)phenyl)piperidine-1-carbonyl)piperidin-1-yl)phenyl)amino)pyrimidin-4-yl)-2-methylbenzyl)-3-isopropoxyazetidine-1-carboxamide] | 15.0 | 68.0 | 97.5
